# Data published in patent publication US11046671B2, “Dihydropyrimidinyl benzazepine carboxamide compounds” (Hoffmann-La Roche Inc., priority 2016, dated 2021).
# Legend:
# human TLR8 = human TLR8 (Homo sapiens (Human), UniProt Q9NR97); experiment: HEK-Blue human TLR8 cells, NF-κB SEAP reporter assay; assay type: cell-based; conditions: 20 hours stimulation
# Text: (§1) For TLR8 and TLR7 activity testing, HEK-Blue human TLR8 or TLR7 cells (Invivogen, San Diego, Calif., USA) are used, respectively. These cells are designed for studying the stimulation of human TLR8 or TLR7 by monitoring the activation of NF-κB. A SEAP (secreted embryonic alkaline phosphatase) reporter gene is placed under the control of the IFN-b minimal promoter fused to five NF-κB and AP-1-binding sites. Therefore the reporter expression is regulated by the NF-κB promoter upon stimulation of human TLR8 or TLR7 for 20 hours. The cell culture supernatant SEAP reporter activity was determined using Quanti Blue kit (Invivogen, San Diego, Ca, USA) at a wavelength of 640 nm, a detection medium that turns purple/blue in the presence of alkaline phosphatase. EC50 values were determined using Activity Base analysis (ID Business Solution, Limited).
# human TLR7 = human TLR7 (Homo sapiens (Human), UniProt Q9NYK1); experiment: HEK-Blue human TLR7 cells, NF-κB SEAP reporter assay; assay type: cell-based; conditions: 20 hours stimulation
# Text: as §1
# Chain of human TLR7 (Q9NYK1 27-1049): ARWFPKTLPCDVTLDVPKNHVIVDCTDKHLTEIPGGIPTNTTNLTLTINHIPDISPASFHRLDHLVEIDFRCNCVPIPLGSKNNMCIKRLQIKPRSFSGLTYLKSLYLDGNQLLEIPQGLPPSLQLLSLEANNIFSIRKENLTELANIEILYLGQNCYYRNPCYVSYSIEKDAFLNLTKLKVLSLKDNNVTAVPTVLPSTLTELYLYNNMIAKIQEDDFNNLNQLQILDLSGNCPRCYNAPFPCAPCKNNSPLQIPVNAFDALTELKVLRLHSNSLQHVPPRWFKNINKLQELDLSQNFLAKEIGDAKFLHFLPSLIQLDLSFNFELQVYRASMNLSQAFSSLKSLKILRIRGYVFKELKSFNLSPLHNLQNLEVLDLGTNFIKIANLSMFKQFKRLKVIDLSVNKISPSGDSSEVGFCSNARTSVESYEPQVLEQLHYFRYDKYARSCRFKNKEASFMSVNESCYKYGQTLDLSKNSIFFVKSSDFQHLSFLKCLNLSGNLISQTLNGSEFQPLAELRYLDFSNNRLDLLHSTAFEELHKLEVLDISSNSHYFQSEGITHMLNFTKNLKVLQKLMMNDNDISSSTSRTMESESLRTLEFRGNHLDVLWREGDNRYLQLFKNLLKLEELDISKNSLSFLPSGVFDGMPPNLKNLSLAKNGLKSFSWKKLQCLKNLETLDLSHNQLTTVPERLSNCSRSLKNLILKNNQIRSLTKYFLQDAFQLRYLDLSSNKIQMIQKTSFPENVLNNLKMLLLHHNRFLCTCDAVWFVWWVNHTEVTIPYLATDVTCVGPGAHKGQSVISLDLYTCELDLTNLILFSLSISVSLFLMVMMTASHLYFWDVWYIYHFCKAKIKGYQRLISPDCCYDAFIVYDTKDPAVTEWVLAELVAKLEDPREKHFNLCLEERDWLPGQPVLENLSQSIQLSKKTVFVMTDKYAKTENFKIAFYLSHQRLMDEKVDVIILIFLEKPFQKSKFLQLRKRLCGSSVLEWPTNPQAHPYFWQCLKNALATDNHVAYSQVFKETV
# Chain of human TLR8 (Q9NR97 27-1041): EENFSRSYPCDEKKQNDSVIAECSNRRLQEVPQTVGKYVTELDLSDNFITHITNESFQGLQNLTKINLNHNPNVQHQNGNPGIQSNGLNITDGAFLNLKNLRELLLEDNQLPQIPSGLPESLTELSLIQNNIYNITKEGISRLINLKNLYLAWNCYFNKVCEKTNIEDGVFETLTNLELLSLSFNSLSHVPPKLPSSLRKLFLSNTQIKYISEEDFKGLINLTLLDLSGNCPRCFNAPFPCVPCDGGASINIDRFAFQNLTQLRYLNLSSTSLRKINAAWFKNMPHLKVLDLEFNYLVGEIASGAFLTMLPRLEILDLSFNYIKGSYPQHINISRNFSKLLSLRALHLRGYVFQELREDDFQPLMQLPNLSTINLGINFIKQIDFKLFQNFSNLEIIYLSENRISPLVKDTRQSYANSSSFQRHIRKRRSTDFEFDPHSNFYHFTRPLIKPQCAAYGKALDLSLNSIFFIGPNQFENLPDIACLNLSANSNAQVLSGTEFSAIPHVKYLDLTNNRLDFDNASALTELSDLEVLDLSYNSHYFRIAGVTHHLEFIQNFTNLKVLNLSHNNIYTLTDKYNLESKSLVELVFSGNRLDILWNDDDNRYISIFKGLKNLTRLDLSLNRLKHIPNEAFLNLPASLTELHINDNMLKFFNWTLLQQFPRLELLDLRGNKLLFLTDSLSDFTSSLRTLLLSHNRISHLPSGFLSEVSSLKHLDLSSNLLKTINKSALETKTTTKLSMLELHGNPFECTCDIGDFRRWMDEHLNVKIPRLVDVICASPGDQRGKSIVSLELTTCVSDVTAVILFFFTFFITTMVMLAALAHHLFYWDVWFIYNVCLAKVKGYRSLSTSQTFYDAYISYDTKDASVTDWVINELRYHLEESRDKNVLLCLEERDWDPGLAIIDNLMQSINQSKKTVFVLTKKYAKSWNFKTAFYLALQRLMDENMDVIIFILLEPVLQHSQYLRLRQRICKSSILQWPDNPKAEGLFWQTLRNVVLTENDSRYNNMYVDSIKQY
Structure (SMILES),EC50 (human TLR8) [nM],EC50 (human TLR7) [nM]
"CCCN(CC1CC1)C(=O)C1=Cc2ccc(C3=NCc4ccccc4N3)cc2N=C(N)C1 [Example 3, 2-Amino-N-(cyclopropylmethyl)-8-(1,4-dihydroquinazolin-2-yl)-N-propyl-3H-1-benzazepine-4-carboxamide]",6,> 100000
"CCCN(CC(C)C)C(=O)C1=Cc2ccc(C3=NCc4ccccc4N3)cc2N=C(N)C1 [Example 4, 2-Amino-8-(1,4-dihydroquinazolin-2-yl)-N-isobutyl-N-propyl-3H-1-benzazepine-4-carboxamide]",11,> 100000
"CCCN(CCC)C(=O)C1=Cc2ccc(C3=NCc4c(Cl)cccc4N3)cc2N=C(N)C1 [Example 5, 2-Amino-8-(5-chloro-1,4-dihydroquinazolin-2-yl)-N,N-dipropyl-3H-1-benzazepine-4-carboxamide]",11,–
"CCCN(CCC)C(=O)C1=Cc2ccc(C3=NCc4ccc(Cl)cc4N3)cc2N=C(N)C1 [Example 6, 2-Amino-8-(7-chloro-1,4-dihydroquinazolin-2-yl)-N,N-dipropyl-3H-1-benzazepine-4-carboxamide]",9,> 100000
"CCCN(CCC)C(=O)C1=Cc2ccc(C3=NC(C)(C)c4ccccc4N3)cc2N=C(N)C1 [Example 7, 2-Amino-8-(4,4-dimethyl-1H-quinazolin-2-yl)-N,N-dipropyl-3H-1-benzazepine-4-carboxamide]",7,> 100000
"CCCN(CCC)C(=O)C1=Cc2ccc(C3=NCc4cc(Cl)ccc4N3)cc2N=C(N)C1 [Example 8, 2-Amino-8-(6-chloro-1,4-dihydroquinazolin-2-yl)-N,N-dipropyl-3H-1-benzazepine-4-carboxamide]",6,> 100000

# The next compounds have a lower EC50 (human TLR8) than those just listed; values first:
EC50 (human TLR8) [nM],EC50 (human TLR7) [nM],Structure (SMILES)
3,> 100000,"CCCN(CCC)C(=O)C1=Cc2ccc(C3=NCc4ccccc4N3)cc2N=C(N)C1 [Example 1, 2-Amino-8-(1,4-dihydroquinazolin-2-yl)-N,N-dipropyl-3H-1-benzazepine-4-carboxamide]"
3,> 100000,"CCCN(CCC)C(=O)C1=Cc2ccc(C3=NCc4ccncc4N3)cc2N=C(N)C1 [Example 2, 2-Amino-8-(1,4-dihydropyrido[3,4-d]pyrimidin-2-yl)-N,N-dipropyl-3H-1-benzazepine-4-carboxamide]"
1,> 100000,"CCCN(CCC)C(=O)C1=Cc2ccc(C3=NCc4c(C)cccc4N3)cc2N=C(N)C1 [Example 9, 2-Amino-8-(5-methyl-1,4-dihydroquinazolin-2-yl)-N,N-dipropyl-3H-1-benzazepine-4-carboxamide]"
3,> 100000,"CCCN(CCC)C(=O)C1=Cc2ccc(C3=NCc4c(F)cccc4N3)cc2N=C(N)C1 [Example 10, 2-Amino-8-(5-fluoro-1,4-dihydroquinazolin-2-yl)-N,N-dipropyl-3H-1-benzazepine-4-carboxamide]"
2,> 100000,"CCCN(CCC)C(=O)C1=Cc2ccc(C3=NCc4cc(OC)ccc4N3)cc2N=C(N)C1 [Example 11, 2-Amino-8-(6-methoxy-1,4-dihydroquinazolin-2-yl)-N,N-dipropyl-3H-1-benzazepine-4-carboxamide]"
